The results in this text go back to PubChem BioAssay AID1963981 (Molecular Pharmacology Branch, DTP, NCI, 2024).

The subject of this assay is 354836-022-R-J1-PDC multicell spheroid viability. As to the kind of experiment: Anticancer human tumor 354836-022-R-J1-PDC patient-derived head and neck squamous cell carcinoma cell line growth inhibition [PI3K]. Particulars: for viability, T/C: stronger effect = lower value. The source says:
Combinatorial screen of targeted agents with the PI3K inhibitors inavolisib, alpelisib, duvelisib, and copanlisib in multi-cell type tumor spheroids
A high-throughput screen of multi-cell type tumor spheroids was designed to identify active combinations of targeted small molecules and PI3K pathway inhibitors. Complex spheroids include a stromal component modeled by human endothelial cells (HUVEC) and fibroblasts modeled by human mesenchymal stem cells (MSCs). The concentration ranges selected for each drug and investigational agent were based upon clinically achievable concentrations if the clinical Cmax of the agent was known.
Compounds. The drugs and investigational agents: inavolisib (NSC800729), alpelisib (NSC765974), duvelisib (NSC772469), copanlisib (NSC816437), ipatasertib (NSC767898), afuresertib (NSC778305), talazoparib (NSC767125), sapanisertib (NSC764658), selumetinib (NSC741078), tovorafenib (DAY101, NSC766906), vemurafenib (NSC761431), ravoxertinib (NSC781343), sotorasib (NSC818433), MRTX1133 (NSC 836407), abemaciclib (NSC 768073), palbociclib (NSC758247), venetoclax (NSC 766270), SY5609 (NSC837396), enzalutamide (NSC755605), and darolutamide (NSC825331), were obtained from the National Cancer Institute (NCI) Developmental Therapeutics Program Chemical Repository. The FDA-approved anticancer drug set is available from the NCI Developmental Therapeutics Program. […] The stock solutions were prepared in dimethyl sulfoxide (DMSO, Sigma-Aldrich, St. Louis, MO, cat. D2650) at 800-fold the tested concentration and stored at -70 degrees C prior to their use. All drugs and investigational agents were tested over a range starting from a high concentration at or near the clinical Cmax and decreasing in half-log increments. If the clinical Cmax for an agent had not been determined, the highest concentration tested was 10 microM.
Cell Culture. All cells were maintained in an incubator at 37 degrees C and 5% CO2 with 95% humidity. The PDC lines were cultured according to standard operating procedures established by the NCI PDMR (https://pdmr.cancer.gov/sops/default.htm). All PDCs were thawed and cultured in Matrigel-coated flasks prepared with a working solution of 1X Ham's F-12 nutrient mix, without supplementation (Invitrogen, Waltham, MA, cat. 11765054), 100 U/mL penicillin-streptomycin (Invitrogen, cat. 15140122), and 2.5% Matrigel (Corning Inc., Corning, NY, cat. 354248) for the first three passages. The 354836-022-R-J1-PDC, 475296-252-R-J1-PDC, and 997726-040-R-J2-PDC lines were cultured in 6A media, which includes advanced DMEM/F-12 (Thermo Fisher Scientific, cat. 12634028), 10 mM HEPES (Thermo Fisher Scientific, cat. 15630080), 1X GlutaMAX supplement (Thermo Fisher Scientific, cat. 35050061), 0.1 mg/mL primocin (InvivoGen, San Diego, CA, cat. ant-pm-2), 10% defined fetal bovine serum, heat inactivated (HyClone Laboratories Inc., Logan, UT, cat. SH30070.03HI), 50% L-WRN conditioned media (ATCC, cat. CRL-3276), 1.25 mM N-Acetyl-L-cysteine (Sigma-Aldrich, cat. A9165), 10 mM nicotinamide (Sigma-Aldrich, cat. N0636), 1X B-27 supplement (Thermo Fisher Scientific, cat. 17504044), 1X N-2 supplement (Thermo Fisher Scientific, cat. 17502048), and 10 microM Y-27632 dihydrochloride (Tocris Bioscience, Bristol, United Kingdom, cat. 1254). The 624824-186-R-J2-PDC line was cultured in 6C/Colon 1B media, which includes all 6A media components plus 50 ng/mL human EGF recombinant protein (Thermo Fisher Scientific, cat. PHG0311). […]

pIC50: −log10 of the molar value.
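Note: spheroids exposed to agents for seven days before the viability read.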

As usually defined, the viability, T/C is the result in the treated group divided by that in the control group, in per cent. What is called pIC50 is the IC50 on a negative log10 scale, so that one unit is a factor of ten. For the compound `C#Cc1c(F)ccc2cc(O)cc(-c3ncc4c(N5CC6CCC(C5)N6)nc(OCC56CCCN5CC(F)C6)nc4c3F)c12` (stereo unspecified), the viability, T/C is 101% [middle of 4 runs] (compound 0.0316 µM); 101% [middle of 4 runs] (compound 0.1 µM); 87.7% [middle of 4 runs] (compound 1 µM); 95.4% [middle of 4 runs] (compound 3.16 µM); 90.5% [middle of 4 runs] (compound 10 µM). Further, the negative logarithm of the IC50 (pIC50) (curve of compound) is less than 5.00.
In the case of `C=CC(=O)N1CCN(c2nc(=O)n(-c3c(C)ccnc3C(C)C)c3nc(-c4c(O)cccc4F)c(F)cc23)C(C)C1` (stereo unspecified), the viability, T/C (compound 0.0316 µM) was 114% [middle of 4 runs]; the viability, T/C (compound 0.1 µM) was 95.3% [middle of 4 runs]; the viability, T/C (compound 0.316 µM) is 99.3% [middle of 4 runs]; the viability, T/C (compound 10 µM) is 95.1% [middle of 4 runs]. In addition, the pIC50 (curve of compound) is less than 5.00.
As usually defined, the IC50 is the point on the concentration scale where inhibition reaches its midpoint. Consider `CCCS(=O)(=O)Nc1ccc(F)c(C(=O)c2c[nH]c3ncc(-c4ccc(Cl)cc4)cc23)c1F`, for which the viability, T/C reads like this: (compound 0.1 µM) 109% [middle of 4 runs]; (compound 0.316 µM) 104% [middle of 4 runs]; (compound 1 µM) 91.5% [middle of 4 runs]; (compound 3.16 µM) 86% [middle of 4 runs]; (compound 10 µM) 24.8% [middle of 4 runs]. For the same compound, the IC50 (curve of compound) is 6.06 µM [middle of 4 runs].
As for `Cn1ncc(Cl)c1-c1cc(C(=O)NC(CN)Cc2cccc(F)c2)sc1Cl` (stereo unspecified), the viability, T/C reads like this: (compound 0.0316 µM) 83.5% [middle of 4 runs]; (compound 0.1 µM) 51.3% [middle of 4 runs]; (compound 0.316 µM) 35.9% [middle of 4 runs]; (compound 1 µM) 22.7% [middle of 4 runs]; (compound 3.16 µM) 15.5% [middle of 4 runs]; (compound 10 µM) 5.55% [middle of 4 runs]. In addition, the IC50 (curve of compound) was 114 nM [middle of 4 runs].
Turning to `Cn1cnc2c(F)c(Nc3ccc(Br)cc3Cl)c(C(=O)NOCCO)cc21` + CC(Nc1ccc2c(c1)OCCn1cc(N3C(=O)OCC3C(F)F)nc1-2)C(N)=O, the pIC50 was less than 5.52 (curve of first compound, second compound 0.00316 µM); less than 5.52 (curve of first compound, second compound 0.01 µM); less than 5.52 (curve of first compound, second compound 0.0316 µM); less than 5.52 (curve of first compound, second compound 0.1 µM); 5.64 (curve of first compound, second compound 0.316 µM); 6.60 (curve of first compound, second compound 1 µM). The viability, T/C is, setting by setting: (second compound 0.00316 µM, first compound 0.00949 µM) 98%; (second compound 0.00316 µM, first compound 0.03 µM) 75.2%; (second compound 0.00316 µM, first compound 0.0949 µM) 92.6%; (second compound 0.00316 µM, first compound 0.3 µM) 78%; (second compound 0.00316 µM, first compound 0.949 µM) 79.2%; (second compound 0.00316 µM, first compound 3 µM) 54.9%. The viability, T/C runs as follows: (second compound 0.01 µM, first compound 0.00949 µM) 93.2%; (second compound 0.01 µM, first compound 0.03 µM) 78.7%; (second compound 0.01 µM, first compound 0.0949 µM) 87%; (second compound 0.01 µM, first compound 0.3 µM) 78.7%; (second compound 0.01 µM, first compound 0.949 µM) 75.6%; (second compound 0.01 µM, first compound 3 µM) 56%. For the same compound, the viability, T/C runs as follows: (second compound 0.0316 µM, first compound 0.00949 µM) 90%; (second compound 0.0316 µM, first compound 0.03 µM) 97.1%; (second compound 0.0316 µM, first compound 0.0949 µM) 96%; (second compound 0.0316 µM, first compound 0.3 µM) 83.5%; (second compound 0.0316 µM, first compound 0.949 µM) 83.7%; (second compound 0.0316 µM, first compound 3 µM) 65.1%. Further, the viability, T/C runs as follows: (second compound 0.1 µM, first compound 0.00949 µM) 88.4%; (second compound 0.1 µM, first compound 0.03 µM) 87.3%; (second compound 0.1 µM, first compound 0.0949 µM) 84.2%; (second compound 0.1 µM, first compound 0.3 µM) 80.5%; (second compound 0.1 µM, first compound 0.949 µM) 81.6%; (second compound 0.1 µM, first compound 3 µM) 55.9%. The viability, T/C is 80.9% (second compound 0.316 µM, first compound 0.00949 µM); 81% (second compound 0.316 µM, first compound 0.03 µM); 67.1% (second compound 0.316 µM, first compound 0.0949 µM); 68% (second compound 0.316 µM, first compound 0.3 µM); 63.4% (second compound 0.316 µM, first compound 0.949 µM); 45.4% (second compound 0.316 µM, first compound 3 µM). Besides, the viability, T/C (second compound 1 µM, first compound 0.00949 µM) was 72.2%; the viability, T/C (second compound 1 µM, first compound 0.03 µM) is 57.1%; the viability, T/C (second compound 1 µM, first compound 0.0949 µM) is 55.4%; the viability, T/C (second compound 1 µM, first compound 0.3 µM) is 52.8%; the viability, T/C (second compound 1 µM, first compound 0.949 µM) was 40.8%; the viability, T/C (second compound 1 µM, first compound 3 µM) is 24.7%.
